Literature values in the CATMoS acute toxicity set (Mansouri et al. 2021).
“And” between values parts separate entries of the source, which are not always exact repeats. Equal values may be shown once.

Test: rat acute oral toxicity
Conditions: in vivo
Source text: […]The data set underlying the modeling effort for this project was initially compiled by NICEATM and U.S. EPA’s CCTE. Briefly, LD50 data were collected from rat acute oral systemic toxicity tests, including limit tests, ranges/confidence intervals, and discrete LD50 values. The full data set included 21,200 LD50 entries for 15,688 substances. […] Data were reviewed to ensure that LD50 values with obvious errors in the extracted data such as unit conversion errors (e.g., comma and decimal separator misplacements) were either fixed or removed. After this review, 16,209 LD50 values remained. Many of the chemicals represented had multiple LD50 entries, requiring that a single representative value per Chemical Abstracts Service Registry Number (CASRN) identifier be defined to facilitate modeling efforts. Based on ATWG feedback and to define the representative LD50 as a protective value while accounting for the distribution across multiple LD50s, the median of the lowest quartile was computed using only discrete LD50 values (omitting limit test data and range and confidence interval data). A detailed summary of the data compilation is available online on the NICEATM webpage dedicated to the collaborative modeling project (NTP 2020).
[…][…] For categorical designations, limit test and range/confidence interval LD50 data were integrated wherever possible. As such, the number of chemicals with end point values/calls varies across the modeling end points (Table 3) based on whether chemicals had representative LD50 values and/or other data. If a chemical had both, the representative value was used to determine categorical calls rather than limit test data. Some data were useable only for certain end points and categories depending on the thresholds. For example, ranges that spanned multiple hazard categories were considered only for the binary (very toxic/nontoxic) end points and omitted from rendering a determination for hazard category assignment.
[…]The final data set comprising 11,992 chemicals was split into training and evaluation sets […], respectively. This process was performed semirandomly by ordering chemicals based on the five end points (categorical and continuous LD50 values) and partitioning every fourth record into the evaluation set accordingly. This approach was taken to ensure an equivalent distribution of the LD50 values and the different hazard categories between the training and the evaluation sets without supervised sampling of the chemicals based on structures (Figure 1A). The sources of the chemical structures were also kept equivalent between the two sets, with chemical structures obtained from DSSTox, being the highest quality, representing over 75% of each set (Figure 1B).

Going from C[C@@H]1CC=CC=CC=CC=C[C@H](O[C@@H]2O[C@H](C)[C@@H](O)[C@H](N)[C@@H]2O)C[C@@H]2O[C@](O)(C[C@@H](O)C[C@H]3O[C@@H]3C=CC(=O)O1)C[C@H](O)[C@H]2C(=O)O to CC[C@H]1[C@@H]2C[C@H]3[C@@H]4N(C)c5ccccc5[C@]45C[C@@H](C2[C@H]5O)N3[C@@H]1O (stereo partly specified), the LD50 falls from 2730 mg/kg to 360 mg/kg (7.6-fold).

Going from Oc1ccc(NCc2ccccc2)cc1 to O=C1NC(=O)C(c2ccccc2)(c2ccccc2)N1, the LD50 rises from 400 mg/kg to 1530 mg/kg (3.8-fold).

Going from Cc1nc([N+](=O)[O-])cn1-c1ccc([N+](=O)[O-])cc1 to O=[N+]([O-])c1ccc(CCl)cc1, the LD50 falls from 4810 mg/kg to 1810 mg/kg (2.7-fold).

First: CCOP(=S)(OCC)OCCSCC
Second: CCCCOc1ccc(C(CN(C)C)C(C)CC)cc1Cl (stereo unspecified)
The LD50 of the first is 140-fold lower: 7.5 mg/kg for the first, 1050 mg/kg for the second.

Going from CCNc1nc(NC(C)CC)nc(OC)n1 (stereo unspecified) to CNC(=O)Oc1cc(C(C)C)c(OC(=O)NC)cc1C, the LD50 falls from 1000 mg/kg to 60 mg/kg (17-fold).

Compared with COB1OB(OC)OB(OC)O1, COP(=S)(OC)Oc1cc(C)n(C)c(=O)c1 is 6400-fold lower in LD50: 5160 mg/kg for the first, 0.812 mg/kg for the second.

CCCCCCOc1ccc(NNC=O)cc1 and CCCCCc1ccccc1O are within 1.5-fold of each other in LD50: 717 mg/kg for the first, 700 mg/kg for the second.

First: COc1ccccc1OCC(O)CO (stereo unspecified)
Second: CCCCNC(C)c1ccccc1 (stereo unspecified)
The LD50 of the first is 4.2-fold higher: 1510 mg/kg for the first, 360 mg/kg for the second.

First: Nc1ccc(S(=O)(=O)Nc2ccc(NC(=O)CCC(=O)O)cc2)cc1
Second: CC(=O)CCC1C(=O)N(c2ccccc2)N(c2ccccc2)C1=O
The LD50 of the first is 2.1-fold higher: 1500 mg/kg for the first, 720 mg/kg for the second.

Going from [O-][n+]1cc[n+]([O-])c2ccccc21 to O=C1C=CC(=O)c2ccccc21, the LD50 falls from 500 mg/kg to 190 mg/kg (2.6-fold).

Going from OC1OCC2C1C1(Cl)C(Cl)=C(Cl)C2(Cl)C1(Cl)Cl (stereo unspecified) to Clc1cc2c(c(Cl)c1Cl)Oc1c(Cl)c(Cl)c(Cl)c(Cl)c1O2, the LD50 falls from 1750 mg/kg to 6.33 mg/kg (280-fold).

Going from C=Cc1ccc(C)nc1 to Cc1ccc(S(=O)(=O)Cl)cc1, the LD50 rises from 1170 mg/kg to 4680 mg/kg (4-fold).

Compared with CCOC(=O)COc1ccc2c(C)c(CCN(CC)CC)c(=O)oc2c1, CCOC(=O)OC(C)OC1=C(C(=O)Nc2ccccn2)N(C)S(=O)(=O)c2ccccc21 (stereo unspecified) is 11-fold lower in LD50: 8000 mg/kg for the first, 747 mg/kg for the second.

CN=C(O)O/N=C(/C)C(C)(C)[N+](=O)[O-] and CSC(C)(C)C=NOC(=O)N(C)SN(C)Cc1ccccc1 are within 1.5-fold of each other in LD50: 13 mg/kg for the first, 9.4 mg/kg for the second.

Going from O=C(CS)OCCCCOC(=O)CS to C=CCCCCCCCCC(=O)OC, the LD50 rises from 405 mg/kg to 1560 mg/kg (3.9-fold).

Going from C1CCc2c(OCCN3CCOCC3)n[nH]c2C1 to c1ccc(C(N2CCOCC2)N2CCOCC2)cc1, the LD50 rises from 1600 mg/kg to 5060 mg/kg (3.2-fold).

Going from COP(=S)(OC)SCn1nc(C)ccc1=O to Cc1cccc(C)c1NC(=O)CN1CCCC1=O, the LD50 rises from 8.75 mg/kg to 1180 mg/kg (130-fold).

First: CS(=O)(=O)F
Second: CS(=O)(=O)c1ccc(Cl)cc1
The LD50 of the first is 200-fold lower: 2 mg/kg for the first, 400 mg/kg for the second.

Going from CC(=O)CCC(C)=O to CC1=CC(=O)/C(=C(/C)O)C(=O)O1, the LD50 falls from 2080 mg/kg to 500 mg/kg (4.2-fold).

Compared with OCCN(CCO)C1CCCCC1, CCOC(=O)C1(c2ccccc2)CCN(CCOCCO)CC1 is 11-fold lower in LD50: 2600 mg/kg for the first, 230 mg/kg for the second.

Going from CCCCCCCCCC(=O)NP(=O)(OC)SC (stereo unspecified) to CCCCC(CC)COC(=O)CCCCCCCCCCC(=O)OCC(CC)CCCC (stereo unspecified), the LD50 rises from 125 mg/kg to 21500 mg/kg (170-fold).

Going from CC1=[N+](C)c2ccccc2C1(C)C to CC(C)=C[C@H]1[C@@H](C(=O)OCc2coc(Cc3ccccc3)c2)C1(C)C, the LD50 falls from 707 mg/kg to 63 mg/kg (11-fold).

CCCCN(CC)N=O and CS(=O)(=O)OCCCN(CCCOS(C)(=O)=O)Cc1ccccc1 are within 1.5-fold of each other in LD50: 380 mg/kg for the first, 375 mg/kg for the second.

Compared with Nc1ncnc(Nc2cccc(Cl)c2)n1, O=c1c2nocc2c(-c2ccccc2)nn1-c1ccccc1 is 2.5-fold higher in LD50: 400 mg/kg for the first, 1000 mg/kg for the second.

First: CC(=O)C(N=Nc1cc(Cl)c(-c2cc(Cl)c(N=NC(C(C)=O)C(=O)Nc3ccc(C)cc3C)cc2Cl)cc1Cl)C(=O)Nc1ccc(C)cc1C (stereo unspecified)
Second: Oc1c(Cl)cc(Cl)cc1Sc1cc(Cl)cc(Cl)c1O
The LD50 of the first is 4.5-fold higher: 2230 mg/kg for the first, 492 mg/kg for the second.

Going from Fc1c(Cl)c(Cl)c(Cl)c2[nH]c(C(F)(F)F)nc12 to CC[C@]1(CO)CCCN2CCc3c([nH]c4ccccc34)[C@@H]21, the LD50 rises from 0.847 mg/kg to 1200 mg/kg (1400-fold).

CCOC(C1=NCCCCN1)c1ccccc1 (stereo unspecified) and CN1CSC(=S)N(C)C1 are within 1.5-fold of each other in LD50: 375 mg/kg for the first, 320 mg/kg for the second.

For CC(C)[N+](=O)[O-], the LD50 is given as 720 mg/kg.

In the case of O=NN(O)c1ccccc1, the LD50 is listed as 199 mg/kg and 490 mg/kg.
